In patent US6465523B1, “4-substituted-3-substituted-amino-cyclobut-3-ene-1,2-diones and analogs thereof as novel potassium channel openers” (American Home Products, priority 1998, dated 2002):

Assays:
Bladder Tissue = assay: Smooth muscle (bladder) relaxing activity: inhibition of KCl-enhanced contractile activity of isolated rat bladder strips; assay type: cell-based, Sprague-Dawley rats; settings: for IC50 / inhibition at 30 µM / Bladder Tissue, I = percent inhibition of contractile activity: rat bladder strips, additional 15 mM KCl; for IC50: 50% inhibition of pre-drug contractile activity; for Ratio Aorta IC50 / Bladder IC50: selectivity for bladder over aorta tissue, rat; for inhibition at 30 µM / Bladder Tissue, I = percent inhibition of contractile activity: percent inhibition at 30 μM (footnote *); for inhibition at 30 µM: read-out: Bladder Tissue, I = percent inhibition of contractile activity
Protocol: The smooth muscle (bladder) relaxing activity of the compounds of this invention was established in accordance with standard pharmaceutically accepted test procedures with representative compounds as follows:
Sprague-Dawley rats (150-200 g) are rendered unconscious by CO2 asphyxiation and then euthanized by cervical dislocation. The bladder is removed into warm (37° C.) physiological salt solution (PSS) of the following composition (mM): NaCl, 118.4; KCl, 4.7; CaCl2, 2.5; […]; NaHCO3, 24.9; KH2PO4, 1.2; glucose, 11.1; EDTA, 0.023; gassed with […]; pH 7.4. The bladder is opened and then cut into strips 1-2 mm in width and 7-10 mm in length. The strips are subsequently suspended in a 10 mL tissue bath under an initial resting tension of 1.5 g. The strips are held in place by two surgical clips one of which is attached to a fixed hook while the other is attached to an isometric force transducer. […] The carbachol is then washed out and the tissue allowed to relax to its resting level of activity. Following a further 30 min. period of recovery an additional 15 mM KCl are introduced into the tissue bath. This increase in KCl concentration results in a large increase in the amplitude of spontaneous contractions (and initiation of contractions in previously quiescent strips) superimposed upon a small increase in basal tone. Following stabilization of this enhanced level .of contractile activity, incremental increases in the concentration of test compound or vehicle are introduced into the tissue bath. Contractile activity is measured for each compoundor vehicle concentration during the last minute of a 30 minute challenge.
The isometric force developed by the bladder strips is measured using a […] to elicit 50% inhibition of pre-drug contractile activity (IC50 concentration) and is calculated from this concentra-tion-response curve.

Aorta Tissue = assay: Smooth muscle (aorta) relaxing activity: inhibition of KCl-evoked contracture of isolated rat thoracic aorta rings; assay type: cell-based, Sprague-Dawley rats; settings: 30-35 mM KCl contracture, 50% inhibition of pre-drug contractile force
Text: The smooth muscle (aorta) relaxing activity of the compounds of this invention was established in accordance with standard pharmaceutically accepted test procedures with representative compounds as follows:
Male Sprague-Dawley rats (150-200 g) are rendered unconscious by CO2 asphyxiation and then euthanized by cervical dislocation. The thoracic aorta is removed into warm (37 deg.C.) physiological salt solution (PSS) of the following composition (mM): NaCl; 118.4; KCl, 4.7; CaCl2, 2.5; MgSO4.7H2O, 1.2; NaHCO3, 24.9; KH2PO4, 1.2; glucose, 11.1; EDTA, 0.023; gassed with 95% O2/5% CO2; pH 7.4. The aorta is cleaned of fat and loose adventitia and cut into rings 3-4 mm in width. The rings are subsequently suspended between two stainless steel wire tissue holders in a 10 ml tissue bath. One wire tissue holder is attached to a fixed hook while the other is attached to an isometric force transducer. Resting tension is set at 1 g. The tissues are to recover for a period of 60 mins. prior to beginning the experiment. Tissues are challenged with PSS containing 25 mM KCl to elicit a contracture. The tissues are then washed repeatedly with fresh PSS over a period of 30 mins. and allowed to recover to baseline tension. PSS containing 30-35 mM KCl is then introduced into the tissue bath to evoke a contracture that is allowed to stabilize for not less than 45 minutes. (Other stimuli such as norepine-phrine, PGF2a, histamine, angiotensin II, endothelin or PSS containing 80 mM KCl may also be used to evoke a contracture as necessary). Increasing concentrations of test compound or vehicle are then added to the tissue bath in a cumulative fashion.
Isometric force development by the aortic rings is measured using a force transducer and recorded on a polygraph. The percentage inhibition of contractile force evoked by each concentration of a given test compound is used to generate a concentration-response curve. The concentration of test compound required to elicit 50% inhibition of pre-drug contractile force (IC50 concentration) is calculated from this dose-response curve. (Log concentration versus response curves are approximately linear between 20% and 80% of the maximum response. As such, the IC50 concentration of the drug is determined by linear regression analysis (where x=log concentration and y=% inhibition) of the data points in the 20% to 80% region of the curve]. The maximum percentage inhibition of contractile force evoked by a test compound is also recorded for concentrations of test compound < or = to 30 μM. Data collected from 2 animals are averaged for primary screens.

| IC50 (Bladder Tissue) [µM] | melting point | Compound | inhibition at 30 µM (Bladder Tissue) [%] | also measured |
| --- | --- | --- | --- | --- |
| 26.9 | 158.7 to 160.1 °C | COc1ccc(-c2c(N[C@H](C)c3ccccc3)c(=O)c2=O)cc1 [Example 6, (−)-3-(4-Methoxy-phenyl)-4-((R)-1-phenyl-ethylamino)-cyclobut-3-ene-1,2-dione] |  |  |
| 16.2 |  | CC(=O)C(c1ccc(C(F)(F)F)cc1)c1c(NC(C)C(C)(C)C)c(=O)c1=O (stereo not drawn) [Example 21, 3-[2-Oxo-1-(4-trifluoromethyl-phenyl)-propyl]-4-(1,2,2-trimethyl-propylamino)-cyclobut-3-ene-1,2-dione] |  |  |
| 11.2 | 258.1 to 260.2 °C | COc1ccc(-c2c(NCCc3ccc(C(C)(C)C)cc3)c(=O)c2=O)cc1 [Example 8, 3-[2-(4-tert-Butyl-phenyl)-ethylamino]-4-(4-methoxy-phenyl)-cyclobut-3-ene-1,2-dione] |  |  |
| 15.6 |  | CC(Nc1c(-c2ccc(C(F)(F)F)cc2)c(=O)c1=O)C(C)(C)C (stereo not drawn) [Example 10, 3-(4-Trifluoromethyl-phenyl)-4-(1,2,2-trimethyl-propylamino)-cyclobut-3-ene-1,2-dione] |  |  |
|  | 115.4 to 119 °C (dec.) | CCC(C)(C)Nc1c(-c2ccc(C(F)(F)F)cc2)c(=O)c1=O [Example 11, 4-(4Trifluoromethyl-phenyl)-3-(1,1-dimethyl-propylamino)-cyclobut-3-ene-1,2-dione] | 34.2 |  |
|  | 215.4 to 216.2 °C | COc1ccc(-c2c(NCC(C)c3ccccc3)c(=O)c2=O)cc1 (stereo not drawn) [Example 7, 3-(4-Methoxy-phenyl)-4-(2-phenyl-propylamino)-cyclobut-3-ene-1,2-dione] | 7.4 |  |
| 2.94 | 240.2 to 241 °C | CC(Nc1c(/C=C/c2ccc(C#N)cc2)c(=O)c1=O)C(C)(C)C (stereo not drawn) [Example 27, 4-{(E)-2-[3,4-Dioxo-2-(1,2,2-trimethyl-propylamino)-cyclobut-1-enyl]-vinyl}-benzonitrile] |  |  |
| 25.7 | 210.6 to 211.3 °C | CC(Nc1c(-c2ccc(Br)cc2)c(=O)c1=O)C(C)(C)C (stereo not drawn) [Example 22, 3-(4-Bromo-phenyl)-4-(1,2,2-trimethyl-propylamino)-cyclobut-3-ene-1,2-dione] |  |  |
|  | 220.2 to 222.3 °C | COc1ccc(-c2c(NCCc3cccc(C(F)(F)F)c3)c(=O)c2=O)cc1 [Example 5, 3-(4-Methoxy-phenyl)-4-[2-(3-trifluoromethyl-phenyl)-ethylamino]-cyclobut-3-ene-1,2-dione] | 9.75 |  |
|  | 152 to 155.9 °C (dec.) | CCC(C)(C)Nc1c(-c2cccnc2)c(=O)c1=O.Cl [Example 12, 3-(1,1-Dimethyl-propylamino)-4-(pyridin-3-yl)-cyclobut-3-ene-1,2-dione Hydrochloride] | 26 |  |
| 15.9 |  | COc1ccc(C(C(C)=O)c2c(N(C(=O)OC(C)(C)C)C(C)C(C)(C)C)c(=O)c2=O)cc1 (stereo not drawn) [Example 24] |  |  |

More lines, now with the values behind:

| Compound | IC50 (Bladder Tissue) [µM] | melting point | inhibition at 30 µM (Bladder Tissue) [%] | also measured |
| --- | --- | --- | --- | --- |
| COc1ccc(-c2c(N(C)C(C)C)c(=O)c2=O)cc1 [Example 3, 3-(Isopropyl-methyl-amino)-4-(4-methoxy-phenyl)-cyclobut-3-ene-1,2-dione] | 12 | 109 to 115 °C |  | Ratio Aorta IC50 / Bladder IC50 (Bladder Tissue): 3.85; IC50 (Aorta Tissue): 46.2 ± 7.8 µM |
| CC(Nc1c(-c2ccc(C#N)cc2)c(=O)c1=O)C(C)(C)C (stereo not drawn) [Example 9, 4-[3,4-Dioxo-2-(1,2,2-trimethyl-propylamino)-cyclobut-1-enyl]benzonitrile] |  |  | 27.2 |  |
| COc1ccc(-c2c(NC(C)(C)Cc3ccccc3)c(=O)c2=O)cc1 [Example 1, 3-(1,1-Dimethyl-2-phenyl-ethylamino)-4-(4-methoxy-phenyl)-cyclobut-3-ene-1,2-dione] | 1.2 | 150 to 151 °C |  | Ratio Aorta IC50 / Bladder IC50 (Bladder Tissue): 2.71; IC50 (Aorta Tissue): 3.25 ± 0.35 µM |
| CC(Nc1c(/C=C/c2ccc(Br)cc2)c(=O)c1=O)C(C)(C)C (stereo not drawn) [Example 26, 3-[(E)-2-(4-Bromo-phenyl)-vinyl]-4-(1,2,2-trimethyl-propylamino)-cyclobut-3-ene-1,2-dione] |  |  | 15.6 |  |
| 3-(1,1-Dimethyl-2-phenyl-ethylamino)-4-(3-methoxy-phenyl)-cyclobut-3-ene-1,2-dione [Example 25] |  |  |  | Bladder Tissue, I = percent inhibition of contractile activity (Bladder Tissue): 1 = 30.35% |
| COc1ccc(Cc2c(NC(C)C(C)(C)C)c(=O)c2=O)cc1.COc1ccc(Cc2c(NC(C)C(C)(C)C)c(=O)c2=O)cc1.COc1ccc(Cc2c(NC(C)C(C)(C)C)c(=O)c2=O)cc1.COc1ccc(Cc2c(NC(C)C(C)(C)C)c(=O)c2=O)cc1.O (stereo not drawn) [Example 23, 3-(4-Methoxy-benzyl)-4-(1,2,2-trimethyl-propylamino)-cyclobut-3-ene-1,2-dione One-quarter Hydrate] |  |  |  | Bladder Tissue, I = percent inhibition of contractile activity (Bladder Tissue): 1 = 10.2% |
| CCC(C)(C)Nc1c(-c2ccc(OC)cc2)c(=O)c1=O [Example 2, 3-(1,1-Dimethyl-propylamino)-4-(4-methoxy-phenyl)-cyclobut-3-ene-1,2-dione] | 2.5 | 133 to 135 °C |  | Ratio Aorta IC50 / Bladder IC50 (Bladder Tissue): 15.1; IC50 (Aorta Tissue): 37.6 ± 6.05 µM |
| COc1ccc(-c2c(NC(C)C(C)(C)C)c(=O)c2=O)cc1 (stereo not drawn) [Example 4, 3-(4-Methoxy-phenyl)-4-(1,2,2-trimethyl-propylamino)-cyclobut-3-ene-1,2-dione] | 9.51 | 179 to 181 °C |  | Ratio Aorta IC50 / Bladder IC50 (Bladder Tissue): 2.56; IC50 (Aorta Tissue): 24.2 ± 6.3 µM |
